According to PMC7811517, “Human neuronal signaling and communication assays to assess functional neurotoxicity” (Archives of Toxicology, 2020):
Where “and” joins values, the source holds several entries; their conditions need not be identical. Equal values may be shown once. Entries after “also recorded” stand apart in the source; their conditions may differ. Read-outs that look alike come from different tables or passages of the source.

Experiments:
[1] = target: P2X receptors; test: Ca2+-imaging of LUHMES neurons, P2 receptor agonist responses; assay type: cell-based, human; conditions: for pEC50 in Ca2+-imaging: LUHMES neurons, agonist concentration-response
Procedure: (§1) The signals of individual cells could not be captured. […] The total recording never exceeded 8 min.
(Ritz et al. [2015]). The logarithm of the half-maximal effective concentration (logEC50) between 0 and the upper limit (d), which was set to 1, is represented by ẽ, x denotes the concentration and b stands for the slope parameter (Ritz et al. [2015]).

[2] = tested on: NaV channels; test: Ca2+-imaging of LUHMES neurons, NaV channel toxicants; assay type: cell-based, human
Procedure: as §1
(§2) (Ritz et al. [2015]). […].

[3] = tested on: NaV channels; test: Automated patch clamp recordings (QPatch) of NaV channel currents in LUHMES neurons; assay type: cell-based, human
[4] = tested on: rat hippocampal neurons; conditions: cited from earlier work
[5] = tested on: LUHMES neurons; test: Manual patch clamp recordings of LUHMES neurons; assay type: cell-based, human
Text: Manual patch clamp was executed with an EPC 10 USB patch clamp amplifier and PatchMaster Software (version 2 × 90.5; HEKA Elektronik, Lambrecht, Germany). […] Intracellular solution contained [mM]: 107 K-gluconate, 10 KCl, 1 MgCl2, 10 HEPES, 5 EGTA, 4 Na2ATP and 0.2 NaGTP, pH 7.20. Recordings were obtained at room temperature. The cells were kept at a holding potential of − 70 mV. In voltage clamp mode NaV and voltage-gated potassium (KV) channels were activated for 300 ms by voltage pulses ranging from − 70 to + 70 mV in + 10 mV steps after a hyperpolarizing step to − 120 mV for 200 ms. To investigate the firing behavior, cells were stimulated in current clamp mode by hyper- and depolarizing current pulses of 300 ms duration. The pulse protocol was executed at 0.2 Hz. For agonist tests in current clamp and voltage clamp mode, cells were kept at a holding potential of − 70 mV and the compounds were applied for 5 s.
The raw data of the manual patch clamp recordings were analyzed in scripts written in R. For leak subtraction, the P/4 algorithms of PatchMaster and QPatch Software were used in the voltage clamp recordings for manual and automated patch clamp experiments, respectively.

[6] = tested on: LUHMES neurons; assay type: cell-based, human
Procedure: as §1

[7] = tested on: P2X receptors; test: Ca2+-imaging of LUHMES neurons, P2X receptor antagonists against ATP or α,β-meATP response; assay type: cell-based, human; conditions: for pIC50 on the response triggered by ATP: 1 µM ATP (~EC75)
Procedure: as §1, §2

[8] = tested on: mice; conditions: mouse, in vivo; cited from earlier work
[9] = target: human P2X3 receptors; conditions: ref Garcia-Guzman et al. [1997]; cited from earlier work
[10] = tested on: NaV1.1; conditions: ref McCormack et al. [2013]; cited from earlier work
[11] = tested on: NaV1.3; conditions: ref McCormack et al. [2013]; cited from earlier work
[12] = tested on: NaV1.2; conditions: ref McCormack et al. [2013]; cited from earlier work
[13] = tested on: NaV1.6; conditions: ref McCormack et al. [2013]; cited from earlier work
[14] = tested on: NaV1.7; conditions: ref McCormack et al. [2013]; cited from earlier work
[15] = target: dopamine transporter (DAT) (Homo sapiens, UniProt Q01959); assay type: cell-based
dopamine transporter (DAT), sequence (Q01959 whole entry): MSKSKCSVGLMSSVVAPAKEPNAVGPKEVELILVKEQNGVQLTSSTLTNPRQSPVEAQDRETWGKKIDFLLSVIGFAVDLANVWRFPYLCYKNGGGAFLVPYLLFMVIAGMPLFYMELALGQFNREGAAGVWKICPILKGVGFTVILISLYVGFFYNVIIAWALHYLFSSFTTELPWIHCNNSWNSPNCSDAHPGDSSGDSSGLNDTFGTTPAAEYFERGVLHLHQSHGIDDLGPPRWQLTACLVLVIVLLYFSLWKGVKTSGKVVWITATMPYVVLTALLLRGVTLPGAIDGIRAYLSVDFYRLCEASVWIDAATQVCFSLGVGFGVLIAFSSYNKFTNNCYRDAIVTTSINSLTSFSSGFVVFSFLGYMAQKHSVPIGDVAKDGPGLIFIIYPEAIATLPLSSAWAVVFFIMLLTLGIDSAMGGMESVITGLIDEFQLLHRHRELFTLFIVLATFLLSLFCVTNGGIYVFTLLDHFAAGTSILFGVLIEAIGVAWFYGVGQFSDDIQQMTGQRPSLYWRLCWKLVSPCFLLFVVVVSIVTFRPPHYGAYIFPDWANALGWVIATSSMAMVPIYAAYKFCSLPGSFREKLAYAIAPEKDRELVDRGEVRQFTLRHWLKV
Procedure: LUHMES cells were differentiated for 6 days in a 24-well format and then treated with the indicated DAT inhibitors. […] After 10 min at 37 °C, the supernatant was removed and cells were washed with PBS. Then lysis buffer was added (PBS containing 0.2% Triton X-100). The amount of radioactive label taken up by the cells as well as the residual activity in the cell supernatant (plus washing buffer) was measured on a scintillation counter.

[16] = 1 µM DA and 0.3 µM AMP, NNC 55–0396 30 µM

Nc1ncnc2c1ncn2[C@@H]1O[C@H](COP(=O)(O)OP(=O)(O)OP(=O)(O)O)[C@@H](OC(=O)c2ccc(C(=O)c3ccccc3)cc2)[C@H]1O [BzATP]
pEC50 in Ca2+-imaging [1]: 7.76 ± 0.11

microcystin-LF
effect alone in Ca2+-imaging [2]: no significate effect; also recorded: did not show any effects
effect on the response to 3 µM VTD [2]: no significate effect; also recorded: did not show any effects

CCN(CC)CC(=O)Nc1c(C)cccc1C [Lidocaine, lidocaine]
pIC50, NaV current, 1st pulse [3]: 3.03 ± 0.07
pIC50, NaV current, 10th pulse [3]: 3.57 ± 0.06
pIC50 in rat hippocampal neurons [4]: ~ 3.4

NC1=N[C@H](O)[C@H]2[C@H]3O[C@]4(O)O[C@@H]([C@@H](O)[C@@]2(N1)[C@@H]4O)[C@]3(O)CO [TTX, tetrodotoxin]
pIC50 on the response triggered by VTD [2]: 7.9 and 7.93 ± 0.06
pIC50, NaV current (pulse not specified) [3]: ~ 7.2
pIC50, NaV current, 1st pulse [3]: 7.23 ± 0.05
pIC50, NaV current, 10th pulse [3]: 7.26 ± 0.05
effect on rapid transient inward currents [5]: blocked
signal amplitude compared to control, response to AMP [6]: 21% and 20.5 ± 0.02%
signal amplitude compared to control, response to DA [6]: 69% and 68.6 ± 0.06%

COC(=O)C1=C(C)NC(C)=C(C(=O)OC)C1c1ccccc1[N+](=O)[O-] [nifedipine]
signal amplitude compared to control, response to AMP [6]: 51% and 51.4 ± 0.03%
signal amplitude compared to control, response to DA [6]: 70% and 70.2 ± 0.05%

NCCc1ccc(O)c(O)c1 [DA, dopamine]
main oscillation frequency [6]: 0.201 ± 0.002 Hz and 0.2–0.23 Hz
recordings with oscillations of the Ca2+-imaging signal [6]: 61.6% and 62%

Nc1ncnc2c1ncn2[C@@H]1O[C@H](COP(=O)(O)OP(=O)(O)OP(=O)(O)O)[C@H]2OC3(O[C@H]21)C([N+](=O)[O-])=CC(=[N+]([O-])[O-])C=C3[N+](=O)[O-] (some centres unmarked) [TNP-ATP, 2′,3′-O-(2,4,6-trinitrophenyl) adenosine 5′-triphosphate]
pIC50 on the response triggered by α,β-meATP ([7]; 0.1 µM α,β-meATP (~EC75)): 7.5
pIC50 on the response triggered by ATP [7]: 6.1 and 6.05 ± 0.06

C[C@@H]1C[C@@H]2O[C@@H]3[C@@H](C)[C@H](O)[C@@H]4O[C@@]5(CCCO5)[C@@H](C)[C@H](C)[C@H]4O[C@H]3C[C@H]2O[C@H]2C[C@H]3O[C@H]4C/C=C\C[C@H]5O[C@H]6C=C[C@H]7O[C@H]8[C@H](O)[C@H]9O[C@@H](/C=C/[C@H](O)CO)C=CC[C@@H]9O[C@@H]8C[C@@H]7O[C@@H]6C=C[C@@H]5O[C@@H]4C[C@@H](O)[C@]3(C)O[C@@H]2C1 [pCTX-2, pacific ciguatoxin-2]
amplitude of the evoked response [2]: 1779 ± 50 AU
effect compared to control [2]: no effect
effect on [Ca2+]i / Ca2+-imaging signal [2]: induced an increase of the baseline and oscillations; also recorded: increased [Ca^2+]i
effect on the amplitude induced by 3 µM VTD [2]: significantly reduced
acute toxicity (mice) [8]: 2.3 µg/kg

Cc1ccc(C(=O)Nc2ccc(S(=O)(=O)O)c3cc(S(=O)(=O)O)cc(S(=O)(=O)O)c23)cc1NC(=O)c1cccc(NC(=O)Nc2cccc(C(=O)Nc3cc(C(=O)Nc4ccc(S(=O)(=O)O)c5cc(S(=O)(=O)O)cc(S(=O)(=O)O)c45)ccc3C)c2)c1 [suramin]
pIC50 on the response triggered by α,β-meATP ([7]; 0.1 µM α,β-meATP (~EC75)): 4.51 ± 0.03 and 4.5
pIC50 on the response triggered by ATP [7]: 4.09 ± 0.03 and 4.1
pIC50 for human P2X3 receptors [9]: approximately 4.8

O=C(Nc1ccc(S(=O)(=O)Nc2nccs2)cc1)C(c1ccccc1)c1ccccc1 [ICA-121431]
pIC50, NaV current with 50% of channels inactivated ([3]; prepulse to −55 mV): 6.33 ± 0.10 and 6.3
IC50 [10]: 23 nM
IC50 [11]: 13 nM
IC50 [12]: 240 nM
IC50 [13]: 13000 nM
IC50 [14]: 10000 nM

O=C(O)c1cc(C(=O)O)c(C(=O)N(Cc2cccc(Oc3ccccc3)c2)[C@H]2CCCc3ccccc32)cc1C(=O)O [A-317491]
block of the response of ATP [7]: up to 40%
effect on ATP signals [7]: only a weak partial effect
effect on the response to α,β-meATP [7]: potently and completely blocked
pIC50 on the response triggered by α,β-meATP [7]: 6.31 ± 0.05

CC(C)[C@H]1c2ccc(F)cc2CC[C@@]1(CCN(C)CCCc1nc2ccccc2[nH]1)OC(=O)C1CC1.Cl.Cl [NNC 55–0396, (1S,2S)-2-(2-(N-[(3-benzimidazol-2-yl)propyl]-N-methylamino)ethyl)-6-fluoro-1,2,3,4-tetrahydro-1-isopropyl-2-naphtyl cyclopropanecarboxylate dihydrochloride]
signal amplitude compared to control, response to AMP [6]: 2.1 ± 0.02%
signal amplitude compared to control, response to DA [6]: 3.0 ± 0.02%
inhibition of amplitude, DA/AMP induced oscillations [6, 16]: > 95%
signal amplitude compared to control, DA/AMP induced oscillations [6, 16]: 2–3%

COc1ccc(C(=O)O[C@H]2CC[C@@]3(C)[C@@H]4CC[C@H]5[C@]6(O)C[C@H](O)[C@@]7(O)[C@@H](CN8C[C@@H](C)CC[C@H]8[C@@]7(C)O)[C@]6(O)C[C@@]53O[C@]24O)cc1OC [VTD, veratridine]
pEC50, rise of [Ca2+]i ([2]; LUHMES neurons): 5.4 and 5.38 ± 0.03
effect on action potential duration ([5]; 1 µM VTD, current clamp, n = 4): reversibly increased the action potential duration

COC(=O)[C@H]1[C@@H](OC(=O)c2ccccc2)C[C@@H]2CC[C@H]1N2C [cocaine]
effect on uptake of [3H]DA [15]: inhibited; also recorded: significantly reduced

Nc1ncnc2c1ncn2[C@@H]1O[C@H](COP(=O)(O)OP(=O)(O)OP(=O)(O)O)[C@@H](O)[C@H]1O [ATP, Adenosine 5'-triphosphate]
pEC50 in Ca2+-imaging [1]: 7.35 ± 0.08
half-life of the fast decrease of the fluorescence signal ([1]; at 100 µM ATP): ~ 8 s
response to agonist application ([5]; 100 µM ATP for 5 s, current clamp): triggered action potential firing

CC(N)Cc1ccccc1 (centres unmarked) [AMP, amphetamine]
main oscillation frequency ([6]; 1 µM DA (n = 6), 0.3 µM AMP (n = 10), FFT analysis): 0.234 ± 0.007 Hz and 0.2–0.23 Hz
recordings with oscillations of the Ca2+-imaging signal ([6]; 1 µM DA (n = 125), 0.3 µM AMP (n = 50)): 94.0%
effect on uptake of [3H]DA [15]: inhibited; also recorded: significantly reduced

CN1Cc2c(N)cccc2C(c2ccccc2)C1 (centres unmarked) [nomifensine]
effect on oscillations induced by AMP and DA [6]: blocked

Nc1ncnc2c1ncn2[C@@H]1O[C@H](COP(=O)(O)CP(=O)(O)OP(=O)(O)O)[C@@H](O)[C@H]1O [α,β-meATP]
pEC50 in Ca2+-imaging [1]: 7.52 ± 0.03 and 7.5
pEC50, amplitude normalized to K+ amplitude ([1]; normalized to 30 mM K+ application, 5 differentiations): 7.58 ± 0.04
